Test results as given in US8911750B2, “Lung volume reduction therapy using crosslinked biopolymers” (priority 2007, dated 2014).

Test system: tissue
Assay: Local tissue toxicity of glutaraldehyde by concentration
Type: in vivo
Details: below this level limited local toxicity

## O=CCCCC=O [glutaraldehyde]
  concentration that produces significant tissue necrosis: ≥ 0.75%
